Converted amounts (≈) assume the structure as drawn.
Legend:
[1] = tested on: Human immunodeficiency virus 1; assay: Antiviral activity against HIV1 infected in human MT4 cells assessed as inhibition of virus-induced cytopathic effect; type: functional, organism-based; settings: Human immunodeficiency virus 1, MT4
[2] = tested on: Human alphaherpesvirus 2; assay: Antiviral activity against Herpes simplex virus 2 G assessed as inhibition of virus-induced cytopathic effect by cell based assay; type: functional; settings: Human alphaherpesvirus 2, strain G
[3] = tested on: Human alphaherpesvirus 1; assay: Antiviral activity against Herpes simplex virus 1 KOS assessed as inhibition of virus-induced cytopathic effect by cell based assay; type: functional; settings: Human alphaherpesvirus 1, KOS
[4] = Antiproliferative activity against human Molt4/C8 cells; type: functional, cell-based; settings: MOLT-4
[5] = tested on: unidentified influenza virus; assay: Antiviral activity against Influenza virus; type: functional
[6] = tested on: Influenza A virus; assay: Antiviral activity against Influenza A virus; type: functional, organism-based
[7] = Binding affinity to HSV1 uracil-DNA glycosylase after 30 mins by electrophoretic mobility shift assay; design: species or system Human alphaherpesvirus 1
[8] = tested on: Vesicular stomatitis virus; assay: Antiviral activity against Vesicular stomatitis virus; type: functional, organism-based
[9] = tested on: Vaccinia virus; assay: Antiviral activity against Vaccinia virus; type: functional, organism-based; settings: Orthopoxvirus vaccinia
[10] = tested on: CCRF-CEM; assay: Cytostatic activity against human CEM cells; type: functional
[11] = tested on: MOLT-4; assay: Cytostatic activity against human Molt4/C8 cells; type: functional, cell-based
[12] = Cytostatic activity against mouse L1210/0 cells; type: functional, cell-based
[13] = target: T1, Inosine-adenosine-guanosine-nucleoside hydrolase (Trypanosoma brucei brucei, UniProt O15727); assay: Inhibition of Trypanosoma brucei brucei inosine-adenosine-guanosine nucleoside hydrolase expressed in Escherichia coli
T1 sequence (O15727 whole entry): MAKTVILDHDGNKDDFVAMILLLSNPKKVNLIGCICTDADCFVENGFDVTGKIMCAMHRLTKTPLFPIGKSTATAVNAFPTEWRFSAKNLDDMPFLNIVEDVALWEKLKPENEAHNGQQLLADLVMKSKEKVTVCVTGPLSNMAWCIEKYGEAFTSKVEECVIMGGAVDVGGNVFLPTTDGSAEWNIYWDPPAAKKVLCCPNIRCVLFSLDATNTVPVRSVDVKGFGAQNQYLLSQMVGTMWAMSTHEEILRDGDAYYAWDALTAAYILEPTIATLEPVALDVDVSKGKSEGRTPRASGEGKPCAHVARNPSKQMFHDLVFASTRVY

[14] = Inhibition of Trichomonas vaginalis purine nucleoside phosphorylase using […] as substrate by xanthine oxidase coupled enzyme assay
[15] = target: T2, Inosine-uridine preferring nucleoside hydrolase (Crithidia fasciculata, UniProt Q27546); assay: Inhibition of Crithidia fasciculata inosine-uridine nucleoside hydrolase expressed in Escherichia coli using p-nitrophenyl beta-D-ribofuranoside as substrate by xanthine oxidase coupled enzyme assay
T2 sequence (Q27546 whole entry): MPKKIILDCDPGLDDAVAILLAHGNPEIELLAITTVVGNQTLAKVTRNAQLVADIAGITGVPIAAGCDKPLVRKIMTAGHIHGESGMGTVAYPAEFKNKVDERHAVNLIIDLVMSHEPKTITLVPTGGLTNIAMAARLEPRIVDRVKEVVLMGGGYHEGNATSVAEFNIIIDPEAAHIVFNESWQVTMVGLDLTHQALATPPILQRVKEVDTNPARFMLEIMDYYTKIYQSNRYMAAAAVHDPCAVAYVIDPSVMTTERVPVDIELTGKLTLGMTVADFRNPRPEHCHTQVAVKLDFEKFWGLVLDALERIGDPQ

[16] = Cytotoxicity against human CEM/0 cells assessed as reduction in cell viability; type: cell-based, CCRF-CEM
[17] = Cytotoxicity against HEL cells assessed as reduction in cell viability; type: cell-based; settings: human
[18] = Cytotoxicity against human E6SM cells assessed as alteration in cell morphology by microscopic method; type: cell-based
[19] = Cytotoxicity against African green monkey Vero cells assessed as alteration in cell morphology by microscopic method; type: cell-based; settings: chlorocebus sabaeus
[20] = Cytotoxicity against human HeLa cells assessed as alteration in cell morphology by microscopic method; type: cell-based
[21] = tested on: Hepatitis C virus; assay: Antiviral activity against Hepatitis C virus; type: functional, organism-based, Hepacivirus hominis
[22] = tested on: CCRF-CEM; assay: Growth inhibition of human CCRF-CEM cells; type: functional, cell-based
[23] = tested on: Human betaherpesvirus 5; assay: Antiviral activity against HCMV infected in HEL cells assessed as inhibition of virus-induced cytopathic effect after 6 days; type: functional, organism-based; settings: Human betaherpesvirus 5, HEL, 144 h
[24] = Antiproliferative activity against mouse L1210/0 cells; type: functional, cell-based
[25] = Cytotoxicity against human CEM/0 cells; type: cell-based, CCRF-CEM
[26] = Cytotoxicity against HEL cells; type: cell-based; settings: human
[27] = Cytotoxicity against human E6SM cells; type: cell-based
[28] = Cytotoxicity against African green monkey Vero cells; type: cell-based; settings: chlorocebus sabaeus
[29] = Cytotoxicity against human HeLa cells; type: cell-based
[30] = Cytotoxicity against MDCK cells; type: cell-based, Canis lupus familiaris; settings: dog

`Nc1ccn(CC2(CO)CC=CC2)c(=O)n1` showed an EC50 [1] of 56.4 µM.

`Nc1nc2c(ncn2C[C@H]2C[C@H](O)[C@@H](CO)O2)c(=O)[nH]1` gave an MIC [2] of 5 µg/mL (≈ 17.8 µM) and an MIC [3] of 5 µg/mL (≈ 17.8 µM).

`CC1(C)[C@@H](Cn2cnc3c(Cl)ncnc32)CC[C@@]1(C)CO` gave an IC50 [4] of 3.8 µg/mL (≈ 12.3 µM) and an MIC [5] of 10 µg/mL (≈ 32.4 µM).

With `O=c1ccn(C[C@H]2C[C@H](O)[C@@H](CO)O2)c(=O)[nH]1` the IC50 [6] was 94.2 µg/mL (≈ 389 µM) and the Kd [7] was 0.16 µM.

`Cc1ccc(S(=O)(=O)OC[C@H]2OC[C@@H]3OCO[C@@H]32)cc1` showed an IC50 [8] greater than 400 µg/mL and an IC50 [9] greater than 400 µg/mL.

In the case of `CC1(C)[C@@H](CO)CC[C@@]1(C)Cn1cnc2c(Cl)ncnc21`, the Activity [10] is reported as 14 µg/mL, the Activity [11] is reported as 9 µg/mL and the Activity [12] is reported as 13 µg/mL.

`Nc1ncnc2c1ncn2C[C@@H]1N[C@H](CO)[C@@H](O)[C@H]1O` gave a Ki [13] of 3.6 µM, a Ki [14] greater than 10 µM and a Ki [15] of 5.4 µM.

Work on `Nc1nc(Cl)c2ncn(C[C@H]3CC[C@@H](CO)C3)c2n1` yielded a CC50 [16] of 1 µg/mL (≈ 3.55 µM), a CC50 [17] of 1 µg/mL (≈ 3.55 µM) and a CC50 [18] of 1 µg/mL (≈ 3.55 µM). It also gave a CC50 [19] of 1 µg/mL (≈ 3.55 µM) and a CC50 [20] of 1 µg/mL (≈ 3.55 µM).

`Clc1ncnc2c1ncn2CC12CCC(O1)c1cc3ccccc3cc12` (stereo unspecified) gave an EC50 [21] of 6.31 µM and an IC50 [22] of 5.73 µM.

With `Nc1ncnc2c1ncn2CC1(CO)CC=CC1` the EC50 [23] was 78.1 µM.

`Nc1ncnc2c1ncn2C[C@H]1CC[C@@H](CO)C1` showed an IC50 [24] of 73 µg/mL (≈ 295 µM), an IC50 [4] of 73 µg/mL (≈ 295 µM) and a CC50 [25] of 80 µg/mL (≈ 323 µM). It also gave a CC50 [26] of 80 µg/mL (≈ 323 µM), a CC50 [27] of 80 µg/mL (≈ 323 µM) and a CC50 [28] of 80 µg/mL (≈ 323 µM). It also gave a CC50 [29] of 80 µg/mL (≈ 323 µM) and a CC50 [30] of 80 µg/mL (≈ 323 µM).

From ChEMBL document CHEMBL3826905, “1'-Homonucleosides and their structural analogues: A review” (Eur J Med Chem, 2016)
